The values that follow come from patent US7491819B1 (priority 2004, dated 2009).

The test system of one series is NL36G virus. The method, then: Virus and cell lines. The T-cell line, MT-2, was obtained through the AIDS Research and Reference Reagent Program. MT-2 cells were sub-cultured twice a week in RPMI 1640 medium supplemented with 10% fetal bovine serum, 2 mM L-glutamine, and 10 mM HEPES buffer pH 7.5. The HIV-1303B virus is a molecular clone derived from the NL4-3 strain of HIV-1 that was obtained from the NIH AIDS Research and Reference Reagent Program. For combinations with enfuvirtide, the NL36G virus was used. […] Virus stocks were made by transfecting 293T cells with a proviral DNA clone using LipofectAMINE PLUS (Invitrogen), according to the manufacturer's instructions. Three days post-transfection, virus was harvested and passaged once in MT-2 cells before titration in MT-2 cells.
Chemicals. Example 19, atazanavir, didanosine, stavudine, efavirenz, and enfuvirtide (T-20) were synthesized by Bristol-Myers Squibb using published or known reactions. […] Tenofovir was tested as tenofovir disopoxil fumarate. Zidovudine and zalcitabine were purchased from Sigma, and emtricitabine from Moravek Biochemicals.
Drug Susceptibility and Cytotoxicity Assays. For drug susceptibility assays, MT-2 cells were infected with HIV-1 303B (or NL36G), at an MOI of 0.001, and seeded into 96-well microtiter plates (2.5×10^5 cells/ml) containing serial dilutions of test compounds. […] Each drug ratio consisted of an array of 3-fold serial dilutions, and was performed with eight or more replicas on separate multi-well plates. HIV infected cells were incubated at 37° C. in 5% CO2, and on day five post-infection, the extent of virus replication was measured by determining cell viability using the CellTiter 96 Aqueous Non-Radioactive Cell Proliferation Assay (Promega). […] Cytotoxicity assays were performed in parallel with the combination experiments. Here, uninfected cells were exposed to the same drug combinations, and assayed after five days for cell viability using the MTS assay.
Analysis of Drug Combination Effects. For determination of combination index (CI) values, drugs were diluted in a fixed ratio and multiple ratios were analyzed. The drug serial dilutions spanned a range of concentrations near the EC50 value of each compound, so that equivalent antiviral activities could be compared. The normalized responses from each therapy are fit to the four-parameter logistic model with a common minimum and maximum across all therapies. Conceptually, this equation can be written as
In this equation, Fa stands for “fraction affected,” and represents the fraction of the viral load that has been inactivated. […] The EC50, represented by the Ci in the above equation, is the drug concentration that is expected to reduce the amount of virus by 50%, and the Bi are the parameters that reflects the slope of the concentration-response curve. For this assay, A is the bottom plateau common to all curves, D is the common top plateau, Bj is the “slope” parameter for the jth therapy, and Cj is the concentration that produces an effect equal to the average of A and D for the jth therapy. Therapies 1 and 2 correspond to mono therapies 1 and 2, respectively. Therapies 3, 4, and 5 correspond to the three combination therapies. EC50 values for each drug were determined from the single drug experiments, using the above equation. The equation was fit using a nonlinear regression routine (Proc Nlin) in PC SAS version 8.2 (SAS Institute Inc.).
To assess antiviral effects of different drug combination treatments, combination indices (CIs) were calculated according to Chou and Rideout. The combination index was computed as
In this equation [Dm]1 and [Dm]2 are the concentrations of drugs that would individually produce a specific level of effect, while [D]1 and [D]2 are the concentrations of drugs in combination that would produce the same level of effect.
Theoretically, additivity is implied if the CI is equal to one, synergy if the CI is less than one, and antagonism if the CI is greater than one.

Another series has as its system MT-2 cells. The experiment in a line: Cytotoxicity assay of the drug combinations, uninfected cells, MTS. The class given is cell-based. The settings on record: highest concentrations tested, five days. The method, then: Drug Susceptibility and Cytotoxicity Assays. For drug susceptibility assays, MT-2 cells were infected with HIV-1 303B (or NL36G), at an MOI of 0.001, and seeded into 96-well microtiter plates (2.5×10^5 cells/ml) containing serial dilutions of test compounds. […] Each drug ratio consisted of an array of 3-fold serial dilutions, and was performed with eight or more replicas on separate multi-well plates. HIV infected cells were incubated at 37° C. in 5% CO2, and on day five post-infection, the extent of virus replication was measured by determining cell viability using the CellTiter 96 Aqueous Non-Radioactive Cell Proliferation Assay (Promega). Maximal cell protection was typically seen in samples treated with the highest drug concentration. In the cell viability assay, the tetrazolium compound MTS (3-(4,5-dimethylthiazol-2-yl)-5-(3-carboxymethoxyphenyl)-2-4-sulphophenyl-2H-tetrazolium) is added to cells, whereby enzymes in metabolically active cells convert it into a colored formazan product, which is quantitated by reading absorbance at 490 nm. Cytotoxicity assays were performed in parallel with the combination experiments. Here, uninfected cells were exposed to the same drug combinations, and assayed after five days for cell viability using the MTS assay.

Setting [1] is: in combination with Example 19, EC50 ratio 1:1 (molar 5:44).
Where [2] appears, read: in combination with Example 19, EC50 ratio 1:2.5 (molar 1:22).
The mark [3] stands for this setting: in combination with Example 19, EC50 ratio 2.5:1 (molar 25:88).

Read-outs that look alike come from different tables or passages of the source.

For the substance enfuvirtide, the “overall antiviral effect of the two-drug combination with Example 19 (in words)” value in the series with NL36G virus (classification from combination indices) was “synergistic”. Further, in the series with NL36G virus (setting [1]), the “Combination Indices at 50% HIV Inhibition (Confidence Interval)” value is listed as 0.68 (0.59, 0.77); the “Combination Indices at 75% HIV Inhibition (Confidence Interval)” value is 0.59 (0.48, 0.70); the “Combination Indices at 90% HIV Inhibition (Confidence Interval)” value is 0.52 (0.37, 0.67). In the series with NL36G virus (setting [2]), the “Combination Indices at 50% HIV Inhibition (Confidence Interval)” value is listed as 0.75 (0.65, 0.85); the “Combination Indices at 75% HIV Inhibition (Confidence Interval)” value was 0.60 (0.49, 0.70); the “Combination Indices at 90% HIV Inhibition (Confidence Interval)” value was 0.48 (0.34, 0.61). Moreover, in the series with NL36G virus (setting [3]), the “Combination Indices at 50% HIV Inhibition (Confidence Interval)” value was 0.76 (0.65, 0.86); the “Combination Indices at 75% HIV Inhibition (Confidence Interval)” value is on record as 0.73 (0.59, 0.86); the “Combination Indices at 90% HIV Inhibition (Confidence Interval)” value is reported as 0.71 (0.50, 0.92). The EC50 in the series on NL36G virus (single drug, MT-2 cells, MOI 0.001, day five, MTS cell viability) came out at 61 nM. The “cytotoxicity of the drug combinations with Example 19” value in the series on MT-2 cells was “No significant cytotoxicity”.
